This note sets out measurements from ChEMBL document CHEMBL1201862, “PubChem BioAssay data set” (2004).

Test [1] concerns the target T1, Serine/threonine-protein phosphatase (Candida dubliniensis (strain CD36 / CBS 7987 / NCPF 3949 / NRRLY-17841) (Yeast), UniProt B9W6M3).
T1 sequence (B9W6M3 whole entry): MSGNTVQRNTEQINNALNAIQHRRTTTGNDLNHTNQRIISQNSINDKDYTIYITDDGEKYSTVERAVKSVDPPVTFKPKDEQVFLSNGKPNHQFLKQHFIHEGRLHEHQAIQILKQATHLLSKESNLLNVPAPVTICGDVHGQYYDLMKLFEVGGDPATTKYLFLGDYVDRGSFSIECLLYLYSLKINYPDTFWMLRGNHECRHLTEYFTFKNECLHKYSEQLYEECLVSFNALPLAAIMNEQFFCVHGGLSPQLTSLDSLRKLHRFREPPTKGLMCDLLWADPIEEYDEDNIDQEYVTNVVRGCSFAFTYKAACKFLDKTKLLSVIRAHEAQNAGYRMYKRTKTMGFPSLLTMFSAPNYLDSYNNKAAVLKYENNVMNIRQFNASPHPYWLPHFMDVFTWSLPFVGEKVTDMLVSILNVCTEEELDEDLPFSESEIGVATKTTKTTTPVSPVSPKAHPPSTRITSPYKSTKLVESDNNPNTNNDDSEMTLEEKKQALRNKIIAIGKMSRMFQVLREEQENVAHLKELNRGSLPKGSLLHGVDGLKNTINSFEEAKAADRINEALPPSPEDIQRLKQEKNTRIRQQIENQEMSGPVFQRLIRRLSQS
The experiment in a line: blockers of CaCl2-induced CDRE-lacZ signaling – S. cerevisiae, luminescence, secondary, dose response (AID 2388).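 Note: yeast reporter cells carrying a calcineurin-responsive lacZ construct stimulated with calcium chloride; luminescent beta-galactosidase reporter signal in whole cells rather than isolated phosphatase activity; potency for inhibition where a drop in reporter signal means calcineurin blockade.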 The class given is functional, cell-based.

Test [2] is described as follows: fluconazole-exposed Candida albicans growth modulators – fluorescence, retest, confirmation (AID 2467). The class given is functional, cell-based.
In a further test the target is T2, Protein RecA (Mycobacterium tuberculosis, UniProt P9WHJ3).
T2 sequence (P9WHJ3 whole entry): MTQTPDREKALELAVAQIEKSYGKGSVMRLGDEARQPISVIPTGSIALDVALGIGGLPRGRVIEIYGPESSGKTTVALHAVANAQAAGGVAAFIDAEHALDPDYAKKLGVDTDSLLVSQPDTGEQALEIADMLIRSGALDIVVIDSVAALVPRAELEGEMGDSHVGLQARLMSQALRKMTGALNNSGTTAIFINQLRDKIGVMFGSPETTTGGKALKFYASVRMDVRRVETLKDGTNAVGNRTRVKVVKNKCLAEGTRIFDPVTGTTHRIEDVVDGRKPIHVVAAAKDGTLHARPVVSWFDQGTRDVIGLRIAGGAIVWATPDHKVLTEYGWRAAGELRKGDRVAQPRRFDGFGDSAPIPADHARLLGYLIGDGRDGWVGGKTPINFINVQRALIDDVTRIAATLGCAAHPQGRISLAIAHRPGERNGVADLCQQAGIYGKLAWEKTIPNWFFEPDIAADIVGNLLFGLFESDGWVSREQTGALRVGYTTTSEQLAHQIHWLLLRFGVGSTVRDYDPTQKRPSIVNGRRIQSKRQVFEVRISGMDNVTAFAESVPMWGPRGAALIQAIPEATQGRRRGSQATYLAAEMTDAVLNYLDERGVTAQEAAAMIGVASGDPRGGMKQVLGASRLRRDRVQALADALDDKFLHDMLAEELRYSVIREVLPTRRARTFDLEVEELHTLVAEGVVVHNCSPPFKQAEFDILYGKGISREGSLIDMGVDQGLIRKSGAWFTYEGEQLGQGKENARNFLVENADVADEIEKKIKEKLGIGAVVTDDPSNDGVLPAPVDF
The experiment in a line: Fluorescence Cell-Free Homogeneous Dose Retest to Identify Inhibitors of RecA-Intein Splicing Activity. [Related pubchem assays (depositor defined):AID2097, AID2223, AID489010, AID492950]. The format is functional.

A further test addresses Aurora kinase B (Homo sapiens, UniProt Q96GD4). The format is functional.
The target in test [3] is Serine/threonine-protein kinase pim-3 (Homo sapiens, UniProt Q86V86). The class given is functional.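 Note: value obtained as one member of a broad kinase panel profiling effort.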
Test [4] has as its target Tyrosine-protein kinase ITK/TSK (Homo sapiens, UniProt Q08881). The format is functional.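 Note: affinity for ITK measured as one member of a broad kinase panel profiling binding across the kinome.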
Test [5] deals with cGMP-dependent protein kinase 1 (Homo sapiens, UniProt Q13976). The class given is functional.
For test [6], the target named is Tyrosine-protein kinase JAK2 (Homo sapiens, UniProt O60674). The class given is functional.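 Note: JAK2 tested as one member of a kinase panel.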
Test [7] has as its target Mitogen-activated protein kinase kinase kinase kinase 2 (Homo sapiens, UniProt Q12851). The format is functional.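 Note: measured as one member of a kinome-wide kinase panel, with MAP4K2 as the panel entry.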
Test [8] deals with Rho-associated protein kinase 1 (Homo sapiens, UniProt Q13464). The format is functional.
For test [9], the target named is Serine/threonine-protein kinase N2 (Homo sapiens, UniProt Q16513). The format is functional.
In test [10] the target is Serine/threonine-protein kinase pim-1 (Homo sapiens, UniProt P11309). The class given is functional.
For test [11], the target named is Receptor-type tyrosine-protein kinase FLT3 (Homo sapiens, UniProt P36888). The class given is functional.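 Note: FLT3 was tested as one member of a kinome-wide kinase panel.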
The target of test [12] is Mast/stem cell growth factor receptor Kit (Homo sapiens, UniProt P10721). The format is functional.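 Note: KIT entry within a kinase panel assay.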
For test [13], the target named is ALK tyrosine kinase receptor (Homo sapiens, UniProt Q9UM73). The class given is functional.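 Note: ALK tested as one member of a kinase panel screen.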
In test [14] the target is 3-phosphoinositide-dependent protein kinase 1 (Homo sapiens, UniProt O15530). The format is functional.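 Note: value comes from the Navigating the Kinome panel, PDPK1 member.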
For test [15], the target named is Cell division cycle 7-related protein kinase (Homo sapiens, UniProt O00311). The format is functional.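 Note: value obtained from a kinome-wide kinase panel.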
In test [16] the target is Serine/threonine-protein kinase DCLK1 (Homo sapiens, UniProt O15075). The format is functional.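 Note: affinity for DCLK1 (listed as DCAMKL1) measured as one member of a kinome-wide kinase profiling panel.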
The target in test [17] is G protein-coupled receptor kinase 5 (Homo sapiens, UniProt P34947). Put plainly: Navigating the Kinome. Panel member name: GPRK5. The format is functional.
Test [18] addresses Tyrosine-protein kinase receptor UFO (Homo sapiens, UniProt P30530). The format is functional.
The target of test [19] is Mitogen-activated protein kinase 9 (Homo sapiens, UniProt P45984). The format is functional.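 Note: value from a kinome panel profiling assay, MAPK9 panel entry.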
The target of test [20] is Dual specificity mitogen-activated protein kinase kinase 2 (Homo sapiens, UniProt P36507). The experiment in a line: Navigating the Kinome. Panel member name: MAP2K2. The class given is functional.
Test [21] addresses Serine/threonine-protein kinase 3 (Homo sapiens, UniProt Q13188). The class given is functional.
Another test concerns the target Activated CDC42 kinase 1 (Homo sapiens, UniProt Q07912). Put plainly: Navigating the Kinome. Panel member name: ACK1. The class given is functional.
The target in test [22] is STE20-like serine/threonine-protein kinase (Homo sapiens, UniProt Q9H2G2). The class given is functional.

In general, EC50 refers to the concentration giving half of the maximal effect. Usually Ki stands for a dissociation constant, usually derived from enzyme kinetics or from competition with a known ligand.

Structures are written as SMILES. Calls of active or inactive are those of the source. Some results are limits rather than exact numbers.

Serine/threonine-protein kinase 3, sequence (Q13188 whole entry): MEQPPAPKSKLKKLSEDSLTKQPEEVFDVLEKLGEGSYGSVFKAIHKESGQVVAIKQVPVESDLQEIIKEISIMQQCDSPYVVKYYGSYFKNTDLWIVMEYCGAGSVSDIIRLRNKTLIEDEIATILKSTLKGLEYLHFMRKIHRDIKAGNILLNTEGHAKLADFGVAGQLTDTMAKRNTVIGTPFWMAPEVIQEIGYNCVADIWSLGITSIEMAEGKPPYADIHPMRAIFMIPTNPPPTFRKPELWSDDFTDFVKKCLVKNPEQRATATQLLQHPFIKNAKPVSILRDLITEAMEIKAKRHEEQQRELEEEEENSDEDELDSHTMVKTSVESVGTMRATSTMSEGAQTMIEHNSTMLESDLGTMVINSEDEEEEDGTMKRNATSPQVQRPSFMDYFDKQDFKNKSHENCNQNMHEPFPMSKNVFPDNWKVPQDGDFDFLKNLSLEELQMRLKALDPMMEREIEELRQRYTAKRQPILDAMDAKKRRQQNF
Aurora kinase B, sequence (Q96GD4 whole entry): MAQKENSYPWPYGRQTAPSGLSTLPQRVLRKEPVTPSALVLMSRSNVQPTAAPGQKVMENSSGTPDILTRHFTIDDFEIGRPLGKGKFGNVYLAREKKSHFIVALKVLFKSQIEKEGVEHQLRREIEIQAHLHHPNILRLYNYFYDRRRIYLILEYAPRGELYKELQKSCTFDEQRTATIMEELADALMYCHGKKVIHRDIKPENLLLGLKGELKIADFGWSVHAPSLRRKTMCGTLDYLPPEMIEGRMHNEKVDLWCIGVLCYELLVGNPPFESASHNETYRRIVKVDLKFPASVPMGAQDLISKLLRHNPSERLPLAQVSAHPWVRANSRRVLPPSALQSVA
3-phosphoinositide-dependent protein kinase 1, sequence (O15530 whole entry): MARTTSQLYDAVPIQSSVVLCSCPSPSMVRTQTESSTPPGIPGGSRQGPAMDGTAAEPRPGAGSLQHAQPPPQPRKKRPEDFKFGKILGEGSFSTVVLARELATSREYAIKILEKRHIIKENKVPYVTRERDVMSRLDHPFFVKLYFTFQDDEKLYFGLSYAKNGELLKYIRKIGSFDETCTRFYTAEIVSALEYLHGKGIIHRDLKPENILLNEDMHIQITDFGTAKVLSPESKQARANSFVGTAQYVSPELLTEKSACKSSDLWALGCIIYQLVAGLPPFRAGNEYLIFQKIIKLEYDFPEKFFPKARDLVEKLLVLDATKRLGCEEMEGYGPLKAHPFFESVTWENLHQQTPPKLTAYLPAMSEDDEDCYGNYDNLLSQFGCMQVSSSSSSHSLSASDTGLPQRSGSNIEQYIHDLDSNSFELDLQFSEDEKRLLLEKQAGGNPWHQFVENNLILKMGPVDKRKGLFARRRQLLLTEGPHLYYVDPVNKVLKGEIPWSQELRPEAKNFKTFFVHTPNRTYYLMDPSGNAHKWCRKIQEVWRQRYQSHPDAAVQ
Rho-associated protein kinase 1, sequence (Q13464 whole entry): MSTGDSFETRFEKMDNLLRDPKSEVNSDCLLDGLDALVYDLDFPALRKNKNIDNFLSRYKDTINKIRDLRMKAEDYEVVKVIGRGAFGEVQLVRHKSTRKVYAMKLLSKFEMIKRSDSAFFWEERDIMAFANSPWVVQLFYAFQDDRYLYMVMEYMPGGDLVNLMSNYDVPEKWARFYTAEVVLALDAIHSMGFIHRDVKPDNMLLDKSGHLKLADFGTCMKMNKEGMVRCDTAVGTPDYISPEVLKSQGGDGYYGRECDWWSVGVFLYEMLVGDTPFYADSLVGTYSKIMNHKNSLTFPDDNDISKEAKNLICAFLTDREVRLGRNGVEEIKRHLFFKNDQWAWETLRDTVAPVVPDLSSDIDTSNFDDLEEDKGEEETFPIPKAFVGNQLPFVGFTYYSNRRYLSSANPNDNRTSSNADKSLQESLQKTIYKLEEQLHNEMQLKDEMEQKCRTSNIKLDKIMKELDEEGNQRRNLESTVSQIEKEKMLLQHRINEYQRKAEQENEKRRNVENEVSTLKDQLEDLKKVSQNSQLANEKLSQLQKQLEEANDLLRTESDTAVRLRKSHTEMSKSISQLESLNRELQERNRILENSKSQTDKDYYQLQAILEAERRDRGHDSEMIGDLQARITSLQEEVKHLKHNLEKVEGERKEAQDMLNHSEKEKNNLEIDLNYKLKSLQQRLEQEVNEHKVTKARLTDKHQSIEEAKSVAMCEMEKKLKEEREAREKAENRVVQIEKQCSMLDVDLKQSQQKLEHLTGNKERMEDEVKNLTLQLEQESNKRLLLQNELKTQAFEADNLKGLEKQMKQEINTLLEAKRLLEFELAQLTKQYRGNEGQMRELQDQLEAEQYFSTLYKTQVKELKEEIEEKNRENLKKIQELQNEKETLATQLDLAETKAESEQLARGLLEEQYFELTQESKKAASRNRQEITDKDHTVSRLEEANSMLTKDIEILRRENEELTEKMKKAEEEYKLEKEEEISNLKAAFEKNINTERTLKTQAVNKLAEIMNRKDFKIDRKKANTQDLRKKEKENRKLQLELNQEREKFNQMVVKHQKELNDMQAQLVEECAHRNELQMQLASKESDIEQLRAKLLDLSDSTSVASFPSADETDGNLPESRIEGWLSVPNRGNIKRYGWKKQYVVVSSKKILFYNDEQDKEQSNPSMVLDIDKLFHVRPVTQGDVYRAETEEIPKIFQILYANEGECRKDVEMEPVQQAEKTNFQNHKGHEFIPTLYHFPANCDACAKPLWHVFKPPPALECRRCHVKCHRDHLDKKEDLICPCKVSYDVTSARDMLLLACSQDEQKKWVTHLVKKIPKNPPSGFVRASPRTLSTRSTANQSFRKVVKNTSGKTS
Activated CDC42 kinase 1, sequence (Q07912 whole entry): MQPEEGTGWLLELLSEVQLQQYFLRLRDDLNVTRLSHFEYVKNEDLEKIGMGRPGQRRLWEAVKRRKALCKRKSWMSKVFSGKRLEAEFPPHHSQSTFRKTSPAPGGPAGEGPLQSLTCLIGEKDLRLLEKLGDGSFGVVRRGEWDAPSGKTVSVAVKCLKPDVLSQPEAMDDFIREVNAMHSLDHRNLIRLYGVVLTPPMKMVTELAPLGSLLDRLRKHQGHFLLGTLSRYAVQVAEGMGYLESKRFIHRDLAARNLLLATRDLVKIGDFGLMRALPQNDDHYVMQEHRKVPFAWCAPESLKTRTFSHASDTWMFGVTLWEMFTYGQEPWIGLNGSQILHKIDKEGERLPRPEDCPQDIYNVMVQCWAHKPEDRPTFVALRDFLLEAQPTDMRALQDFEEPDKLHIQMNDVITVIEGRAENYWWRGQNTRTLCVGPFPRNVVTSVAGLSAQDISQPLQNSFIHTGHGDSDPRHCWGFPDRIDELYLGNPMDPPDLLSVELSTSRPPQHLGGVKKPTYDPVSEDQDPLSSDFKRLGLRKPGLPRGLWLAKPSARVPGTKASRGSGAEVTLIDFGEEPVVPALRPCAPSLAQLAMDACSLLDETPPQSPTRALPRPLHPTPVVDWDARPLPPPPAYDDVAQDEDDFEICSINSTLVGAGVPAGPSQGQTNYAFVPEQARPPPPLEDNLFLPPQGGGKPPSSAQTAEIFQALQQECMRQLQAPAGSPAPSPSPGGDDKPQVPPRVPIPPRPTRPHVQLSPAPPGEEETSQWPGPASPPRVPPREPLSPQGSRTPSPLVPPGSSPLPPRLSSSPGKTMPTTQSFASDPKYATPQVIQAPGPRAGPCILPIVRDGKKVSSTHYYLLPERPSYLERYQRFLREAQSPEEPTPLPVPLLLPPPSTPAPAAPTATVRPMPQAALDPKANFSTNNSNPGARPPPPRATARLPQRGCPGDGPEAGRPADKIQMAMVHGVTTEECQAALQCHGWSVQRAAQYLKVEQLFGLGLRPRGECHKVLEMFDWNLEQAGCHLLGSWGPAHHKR
cGMP-dependent protein kinase 1, sequence (Q13976 whole entry): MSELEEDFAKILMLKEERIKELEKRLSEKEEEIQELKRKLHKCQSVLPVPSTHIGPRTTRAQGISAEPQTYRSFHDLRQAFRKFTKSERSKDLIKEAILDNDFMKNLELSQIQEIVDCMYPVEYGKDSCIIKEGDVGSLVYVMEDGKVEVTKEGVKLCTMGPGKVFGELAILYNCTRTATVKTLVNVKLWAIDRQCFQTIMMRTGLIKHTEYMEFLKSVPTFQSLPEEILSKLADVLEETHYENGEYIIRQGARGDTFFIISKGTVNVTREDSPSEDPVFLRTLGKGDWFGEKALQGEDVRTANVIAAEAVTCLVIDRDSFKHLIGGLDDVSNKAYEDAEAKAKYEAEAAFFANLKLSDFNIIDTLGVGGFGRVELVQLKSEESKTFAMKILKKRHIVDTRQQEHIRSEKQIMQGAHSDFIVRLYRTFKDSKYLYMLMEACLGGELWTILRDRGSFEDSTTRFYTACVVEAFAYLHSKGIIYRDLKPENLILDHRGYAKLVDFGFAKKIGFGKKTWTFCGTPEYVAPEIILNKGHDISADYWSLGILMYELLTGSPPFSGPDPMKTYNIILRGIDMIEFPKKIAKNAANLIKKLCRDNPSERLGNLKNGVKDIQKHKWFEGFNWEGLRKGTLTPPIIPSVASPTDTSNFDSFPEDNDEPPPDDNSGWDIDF
Dual specificity mitogen-activated protein kinase kinase 2, sequence (P36507 whole entry): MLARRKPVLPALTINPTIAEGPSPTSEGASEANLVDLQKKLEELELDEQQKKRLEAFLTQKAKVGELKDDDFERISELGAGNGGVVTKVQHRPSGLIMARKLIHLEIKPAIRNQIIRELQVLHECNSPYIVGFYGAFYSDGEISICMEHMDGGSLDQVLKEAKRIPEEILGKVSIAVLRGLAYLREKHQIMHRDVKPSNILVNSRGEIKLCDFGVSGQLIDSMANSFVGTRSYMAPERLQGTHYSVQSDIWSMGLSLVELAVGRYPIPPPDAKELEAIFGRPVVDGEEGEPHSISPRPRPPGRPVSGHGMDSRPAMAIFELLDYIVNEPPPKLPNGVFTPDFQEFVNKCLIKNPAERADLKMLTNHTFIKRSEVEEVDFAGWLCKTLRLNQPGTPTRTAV

As for `CCCn1nc([N+](=O)[O-])c(C(C#N)c2nc3ccccc3s2)c(Cl)c1=O` (stereo not given), the values for the EC50 (in [1]; in [2]; on Protein RecA) were > 180 µM (inactive), 0.661 µM (active) and 2.17 µM (active), respectively.

For the compound `NCCCn1cc(-c2cc(-c3cc4ccccc4s3)c3[nH]ncc3c2)c2nc(N)ncc21`, the Ki at Aurora kinase B is > 2 µM (inactive); in [3] it was 0.0316 µM (active); in [4] it was > 1.58 µM (inactive); in [5] it was 0.00631 µM (active); in test [6] it was > 2 µM (inactive); in test [7], > 1.58 µM (inactive). Moreover, the inhibition constant (Ki) is 0.0794 µM (active) in test [8]; 0.316 µM (active) in test [9]; > 3.16 µM (inactive) in [10]; > 1.26 µM (inactive) in [11]; > 3.16 µM (inactive) in [12]; > 3.98 µM (inactive) in test [13]. The Ki in [14] is 0.00158 µM (active); in test [15] it was 0.0126 µM (active); in test [16], 2.51 µM (active); in test [17], > 3.98 µM (inactive); in [18], 0.501 µM (active); in test [19] it was > 2 µM (inactive). The Ki is > 3.98 µM (inactive) in test [20], 0.501 µM (active) in [21], > 3.98 µM (inactive) at Activated CDC42 kinase 1 and 0.126 µM (active) in test [22].
